Measurements: ChEMBL document CHEMBL4321811, “Targeting the γ-Aminobutyric Acid Type B (GABAB) Receptor Complex: Development of Inhibitors Targeting the K+ Channel Tetramerization Domain (KCTD) Containing Proteins/GABAB Receptor Protein-Protein Interaction” (J Med Chem, 2019)
Activity calls are given as the source filed them. The calls are words filed in the database; no cut-off is given here. Non-standard residues stand in square brackets, D forms with d. Residues, ends and D or L forms follow the SMILES beside them. ξ: configuration not given here. ξS = NC(CO)C(=O)O

What was measured:
[1] = molecular target: T1, BTB/POZ domain-containing protein KCTD12 (Homo sapiens, UniProt Q96CX2); assay: Binding affinity to recombinant human 6X His-tagged KCTD12 T1 domain (27 to 131 residues) expressed in Escherichia coli BL21 DE3 cells preincubated for 1 hr followed by probing with HRP-conjugated 6X-His tag antibody for 0.5 hrs by SPOT peptide microarray analysis
T1 sequence (Q96CX2 whole entry, the tested form may be a part): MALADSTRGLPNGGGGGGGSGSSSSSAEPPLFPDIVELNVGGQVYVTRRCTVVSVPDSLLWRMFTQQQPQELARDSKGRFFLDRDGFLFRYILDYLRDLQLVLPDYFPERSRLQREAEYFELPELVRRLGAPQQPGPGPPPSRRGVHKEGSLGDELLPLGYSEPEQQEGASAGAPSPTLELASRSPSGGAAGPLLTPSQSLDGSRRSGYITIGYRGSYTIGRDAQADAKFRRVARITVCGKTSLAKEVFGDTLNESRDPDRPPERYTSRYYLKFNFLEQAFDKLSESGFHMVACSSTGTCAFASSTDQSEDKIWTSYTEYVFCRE

[2] = molecular target: BTB/POZ domain-containing protein KCTD8 (Mus musculus) (UniProt Q50H33); assay: Binding affinity to KCTD8 in wild type mouse brain cytoplasmic fraction using resin-bound immobilized compound incubated for overnight by pull-down experiment based immunoblot analysis; format: subcellular
Chain of BTB/POZ domain-containing protein KCTD8 (Mus musculus) (Q50H33 whole entry, the tested form may be a part): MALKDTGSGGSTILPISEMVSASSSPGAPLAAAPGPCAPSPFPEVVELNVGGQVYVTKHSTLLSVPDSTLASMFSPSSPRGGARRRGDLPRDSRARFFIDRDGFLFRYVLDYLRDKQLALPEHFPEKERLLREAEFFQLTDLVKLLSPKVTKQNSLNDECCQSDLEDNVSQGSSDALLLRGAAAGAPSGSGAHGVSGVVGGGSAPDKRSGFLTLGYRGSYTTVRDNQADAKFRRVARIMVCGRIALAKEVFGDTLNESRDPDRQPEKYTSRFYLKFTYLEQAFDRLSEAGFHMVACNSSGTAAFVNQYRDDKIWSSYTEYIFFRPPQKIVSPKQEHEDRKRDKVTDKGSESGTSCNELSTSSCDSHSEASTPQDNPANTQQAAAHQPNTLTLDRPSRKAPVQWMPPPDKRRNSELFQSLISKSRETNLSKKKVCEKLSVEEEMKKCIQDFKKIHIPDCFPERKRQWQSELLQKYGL

[3] = molecular target: BTB/POZ domain-containing protein KCTD16 (Mus musculus) (UniProt Q5DTY9); assay: Binding affinity to KCTD16 in wild type mouse brain membrane using resin-bound immobilized compound incubated for overnight by pull-down experiment based immunoblot analysis; format: cell membranes
Chain of BTB/POZ domain-containing protein KCTD16 (Mus musculus) (Q5DTY9 whole entry, the tested form may be a part): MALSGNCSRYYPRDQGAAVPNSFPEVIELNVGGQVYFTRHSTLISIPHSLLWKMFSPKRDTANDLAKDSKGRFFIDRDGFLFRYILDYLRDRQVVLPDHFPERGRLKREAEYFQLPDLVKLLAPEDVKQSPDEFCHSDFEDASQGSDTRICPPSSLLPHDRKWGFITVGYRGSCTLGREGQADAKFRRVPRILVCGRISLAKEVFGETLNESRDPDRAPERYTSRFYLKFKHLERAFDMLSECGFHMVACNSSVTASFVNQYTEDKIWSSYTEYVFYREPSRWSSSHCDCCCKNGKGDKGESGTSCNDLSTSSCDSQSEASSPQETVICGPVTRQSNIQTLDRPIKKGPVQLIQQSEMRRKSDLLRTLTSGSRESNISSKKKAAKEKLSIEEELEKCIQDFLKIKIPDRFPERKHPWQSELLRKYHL

[4] = molecular target: BTB/POZ domain-containing protein KCTD12 (Mus musculus) (UniProt Q6WVG3); assay: Binding affinity to KCTD12 in wild type mouse brain membrane using resin-bound immobilized compound incubated for overnight by pull-down experiment based immunoblot analysis; format: cell membranes
Chain of BTB/POZ domain-containing protein KCTD12 (Mus musculus) (Q6WVG3 whole entry, the tested form may be a part): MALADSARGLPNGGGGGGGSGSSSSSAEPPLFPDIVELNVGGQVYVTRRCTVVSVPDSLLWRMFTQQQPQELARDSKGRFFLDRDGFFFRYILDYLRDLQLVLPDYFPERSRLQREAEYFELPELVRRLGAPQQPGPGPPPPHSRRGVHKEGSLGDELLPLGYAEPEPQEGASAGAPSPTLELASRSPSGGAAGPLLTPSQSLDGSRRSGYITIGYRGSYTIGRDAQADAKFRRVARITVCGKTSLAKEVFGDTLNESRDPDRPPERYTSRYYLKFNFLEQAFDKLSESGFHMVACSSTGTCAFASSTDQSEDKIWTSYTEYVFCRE

[5] = molecular target: BTB/POZ domain-containing protein KCTD8 (Homo sapiens) (UniProt Q6ZWB6); assay: Binding affinity to Myc-tagged full length KCTD8 (unknown origin) expressed in HEK293 cells using resin-bound immobilized compound by pull down analysis; format: cell-based
Chain of BTB/POZ domain-containing protein KCTD8 (Homo sapiens) (Q6ZWB6 whole entry, the tested form may be a part): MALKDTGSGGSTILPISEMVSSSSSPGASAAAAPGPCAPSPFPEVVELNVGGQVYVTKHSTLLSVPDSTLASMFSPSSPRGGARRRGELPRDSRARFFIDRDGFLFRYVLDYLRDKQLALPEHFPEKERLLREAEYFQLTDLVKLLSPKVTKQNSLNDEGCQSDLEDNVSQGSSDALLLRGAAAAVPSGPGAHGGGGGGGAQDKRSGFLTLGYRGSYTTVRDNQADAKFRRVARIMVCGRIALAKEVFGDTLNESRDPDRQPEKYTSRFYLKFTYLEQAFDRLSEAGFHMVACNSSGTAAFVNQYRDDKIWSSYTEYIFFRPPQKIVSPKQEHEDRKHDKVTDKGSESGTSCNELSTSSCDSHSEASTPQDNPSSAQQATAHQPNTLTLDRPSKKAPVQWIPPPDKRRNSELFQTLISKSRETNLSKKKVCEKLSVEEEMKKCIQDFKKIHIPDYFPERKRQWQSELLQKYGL

[6] = molecular target: BTB/POZ domain-containing protein KCTD16 (Homo sapiens) (UniProt Q68DU8); assay: Binding affinity to recombinant 6X His-tagged KCTD16 T1 domain (unknown origin) assessed as high-order oligomer formation by measuring oligomer molecular weight at protein:compound concentration ratio of 1:2 by SEC-MALS analysis (reference value: […] +/- 2.5 kDa)
Chain of BTB/POZ domain-containing protein KCTD16 (Homo sapiens) (Q68DU8 whole entry, the tested form may be a part): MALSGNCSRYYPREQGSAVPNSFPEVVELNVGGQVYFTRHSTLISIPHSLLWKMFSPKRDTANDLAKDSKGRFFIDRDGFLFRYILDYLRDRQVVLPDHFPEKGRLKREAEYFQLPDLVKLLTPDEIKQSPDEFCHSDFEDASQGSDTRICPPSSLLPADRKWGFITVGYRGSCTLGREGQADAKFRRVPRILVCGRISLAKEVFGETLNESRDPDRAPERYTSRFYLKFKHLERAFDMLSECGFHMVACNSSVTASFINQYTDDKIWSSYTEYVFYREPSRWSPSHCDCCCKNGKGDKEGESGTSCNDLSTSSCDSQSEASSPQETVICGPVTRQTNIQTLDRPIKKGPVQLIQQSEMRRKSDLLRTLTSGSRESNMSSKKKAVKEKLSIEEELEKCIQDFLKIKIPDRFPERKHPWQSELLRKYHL

[7] = molecular target: BTB/POZ domain-containing protein KCTD16 (Homo sapiens) (UniProt Q68DU8); assay: Binding affinity to recombinant 6X His-tagged KCTD16 T1 domain (unknown origin) assessed as increase in thermal stability of the protein at protein:compound ratio of 1:5 by Thermofluor analysis
[8] = molecular target: BTB/POZ domain-containing protein KCTD12 (Mus musculus) (UniProt Q6WVG3); assay: Binding affinity to KCTD12 in wild type mouse brain cytoplasmic fraction using resin-bound immobilized compound incubated for overnight by pull-down experiment based immunoblot analysis; format: subcellular
[9] = molecular target: BTB/POZ domain-containing protein KCTD16 (Mus musculus) (UniProt Q5DTY9); assay: Binding affinity to KCTD16 in wild type mouse brain cytoplasmic fraction using resin -bound immobilized compound incubated for overnight by pull-down experiment based immunoblot analysis; format: subcellular
[10] = molecular target: BTB/POZ domain-containing protein KCTD16 (Homo sapiens) (UniProt Q68DU8); assay: Displacement of TAMRA-AAG-SLQLPILHHAYLPSIGGV from recombinant 6X His tagged KCTD16 T1 domain (unknown origin) by fluorescence polarization assay
[11] = molecular target: BTB/POZ domain-containing protein KCTD8 (Homo sapiens) (UniProt Q6ZWB6); assay: Displacement of TAMRA-AAG-SLQLPILHHAYLPSIGGV from recombinant human 6X His-tagged KCTD8 T1 domain (37 to 148 residues) expressed in Escherichia coli BL21 DE3 cells by fluorescence polarization assay
[12] = molecular target: BTB/POZ domain-containing protein KCTD8 (Mus musculus) (UniProt Q50H33); assay: Binding affinity to KCTD8 in wild type mouse brain membrane using resin-bound immobilized compound incubated for overnight by pull-down experiment based immunoblot analysis; format: cell membranes
[13] = molecular target: BTB/POZ domain-containing protein KCTD16 (Homo sapiens) (UniProt Q68DU8); assay: Binding affinity to Myc-tagged full length KCTD16 (unknown origin) expressed in HEK293 cells using resin-bound immobilized compound by pull down analysis; format: cell-based
[14] = molecular target: T1, BTB/POZ domain-containing protein KCTD12; assay: Displacement of TAMRA-AAG-SLQLPILHHAYLPSIGGV from recombinant human 6X His-tagged KCTD12 T1 domain (27 to 131 residues) expressed in Escherichia coli BL21 DE3 cells by fluorescence polarization assay

## H-LPILHHAYLPSIGGV-OH
[1]
  Activity: Active

## H-STNNNEEEKSRLLEK-OH
[1]
  EC50: Not Active

## H-HPPTPPEPSGGLPRG-OH
[1]
  EC50: Not Active

## H-QDTMKTGSSTNNNEE-OH
[1]
  EC50: Not Active

## H-TMKTGSSTNNNEEEK-OH
[1]
  EC50: Not Active

## CC(C)C[C@H](NC(=O)CNC(=O)CNC(=O)[C@H](CO)NC(=O)[C@@H]1CCCN1C(=O)[C@H](CCC(=O)O)NC(=O)[C@@H]1CCCN1C(=O)[C@@H]1CCCN1C(=O)[C@H](NC(=O)[C@@H]1CCCN1C(=O)[C@@H]1CCCN1C(=O)[C@H](Cc1cnc[nH]1)NC(=O)[C@H](CCCNC(=N)N)NC(=O)[C@@H](N)CCCNC(=N)N)[C@@H](C)O)C(=O)N1CCC[C@H]1C(=O)O
[1]
  EC50: Not Active

## H-SLQLPILHHAYLPSIGGV-OH
[2]
  Activity: Active
[3]
  Activity: Active
[4]
  Activity: Active
[5]
  Activity: Active
[6]
  Activity: 66.4 kDa
[7]
  Activity: Active
[8]
  Activity: Active
[9]
  Activity: Active
[10]
  Activity: Active
[11]
  Activity: Active
[12]
  Activity: Active
[13]
  Activity: Active

## H-PRGPPEPPDRLSCDG-OH
[1]
  EC50: Not Active

## H-SGGLPRGPPEPPDRL-OH
[1]
  EC50: Not Active

## CC[C@H](C)[C@H](NC(=O)[C@H](CO)NC(=O)[C@@H]1CCCN1C(=O)[C@H](CC(C)C)NC(=O)[C@H](Cc1ccc(O)cc1)NC(=O)[C@H](C)NC(=O)[C@H](Cc1cnc[nH]1)NC(=O)[C@H](Cc1cnc[nH]1)NC(=O)[C@H](CC(C)C)NC(=O)[C@H](NC(=O)[C@@H]1CCCN1C(=O)[C@H](Cc1ccc(O)cc1)NC(=O)[C@H](CC(N)=O)NC(=O)[C@H](Cc1ccc(O)cc1)NC(=O)[C@H](N)Cc1ccc(O)cc1)[C@@H](C)CC)C(=O)NCC(=O)NCC(=O)N[C@H](C(=O)O)C(C)C
[2]
  Activity: Active
[3]
  Activity: Active
[4]
  Activity: Active
[5]
  Activity: Active
[6]
  Activity: 60.1 kDa
[7]
  Activity: Active
[8]
  Activity: Active
[9]
  Activity: Active
[12]
  Activity: Active
[13]
  Activity: Active

## CC[C@H](C)[C@H](NC(=O)C(CO)NC(=O)[C@@H]1CCCN1C(=O)[C@H](CC(C)C)NC(=O)[C@H](Cc1ccccc1)NC(=O)[C@H](C)NC(=O)[C@H](Cc1cnc[nH]1)NC(=O)[C@H](Cc1cnc[nH]1)NC(=O)[C@H](CC(C)C)NC(=O)[C@@H](NC(=O)[C@@H]1CCCN1C(=O)[C@H](CC(C)C)NC(=O)[C@H](CCC(N)=O)NC(=O)[C@H](CC(C)C)NC(=O)[C@@H](N)CO)[C@@H](C)CC)C(=O)NCC(=O)NCC(=O)N[C@H](C(=O)O)C(C)C (some centres not stated) (H-SLQLPILHHAFLP[ξS]IGGV-OH)
[1]
  EC50: Not Active
[14]
  IC50: Not Active
  Ki: Not Active

## H-GLPRGPPEPPDRLSC-OH
[1]
  EC50: Not Active

## H-NRELEKIIAEKEERV-OH
[1]
  EC50: Not Active

## H-EEKSRLLEKENRELE-OH
[1]
  EC50: Not Active

## H-RLLEKENRELEKIIA-OH
[1]
  EC50: Not Active

## H-SLQLPILHHAYLPSYHYY-OH
[1]; read-out: EC50
  EC50: 210 nM
[14]
  IC50: Nd(Insoluble)
  Ki: Nd(Insoluble)

## H-PPEPSGGLPRGPPEP-OH
[1]
  EC50: Not Active

## H-ELEKIIAEKEERVSE-OH
[1]
  EC50: Not Active

## H-LEKENRELEKIIAEK-OH
[1]
  EC50: Not Active

## H-SLQLPILHHAYLPYYHYY-OH
[1]; read-out: EC50
  EC50: 1360 nM
[14]
  IC50: Nd(Insoluble)
  Ki: Nd(Insoluble)

## H-NNNEEEKSRLLEKEN-OH
[1]
  EC50: Not Active

## CC[C@H](C)[C@H](NC(=O)[C@H](CO)NC(=O)[C@@H]1CCCN1C(=O)[C@H](CC(C)C)NC(=O)[C@H](Cc1ccc(O)cc1)NC(=O)[C@H](C)NC(=O)[C@H](Cc1cnc[nH]1)NC(=O)[C@H](Cc1cnc[nH]1)NC(=O)[C@H](CC(C)C)NC(=O)[C@H](NC(=O)[C@@H]1CCCN1C(=O)[C@H](CC(C)C)NC(=O)[C@H](CCC(N)=O)NC(=O)[C@H](CC(C)C)NC(=O)[C@H](CO)NC(=O)[C@H](CC(C)C)NC(=O)[C@H](CCCNC(=N)N)NC(=O)[C@@H](N)CCCNC(=N)N)[C@@H](C)CC)C(=O)O
[10]
  Activity: Active
[11]
  Activity: Active

## H-QLPILHHAYLPSIGG-OH
[1]
  Activity: Active

## H-EKIIAEKEERVSELR-OH
[1]
  EC50: Not Active

## H-LQLPILHHAYLPSIG-OH
[1]
  Activity: Active

## H-GSSTNNNEEEKSRLL-OH
[1]
  EC50: Not Active

## H-SLQLPILHHAYLPSI-OH
[1]
  Activity: Active

## H-PTPPEPSGGLPRGPP-OH
[1]
  EC50: Not Active

## H-KSRLLEKENRELEKI-OH
[1]
  EC50: Not Active

## H-KENRELEKIIAEKEE-OH
[1]
  EC50: Not Active

## H-KEERVSELRHQLQSR-OH
[1]
  EC50: Not Active

## H-AEKEERVSELRHQLQ-OH
[1]
  EC50: Not Active

## H-SLQLPIAHHAALPSIGGV-OH
[2]
  Activity: inactive
[3]
  Activity: inactive
[4]
  Activity: inactive
[5]
  Activity: inactive
[8]
  Activity: inactive
[9]
  Activity: inactive
[12]
  Activity: inactive
[13]
  Activity: inactive

## H-IIAEKEERVSELRHQ-OH
[1]
  EC50: Not Active

## H-KTGSSTNNNEEEKSR-OH
[1]
  EC50: Not Active

## H-EAQDTMKTGSSTNNN-OH
[1]
  EC50: Not Active

## H-NEEEKSRLLEKENRE-OH
[1]
  EC50: Not Active

## H-EPSGGLPRGPPEPPD-OH
[1]
  EC50: Not Active

## H-GPPEPPDRLSCDGSR-OH
[1]
  EC50: Not Active

## CC[C@H](C)[C@H](NC(=O)C(CO)NC(=O)[C@@H]1CCCN1C(=O)[C@H](CC(C)C)NC(=O)[C@H](C)NC(=O)[C@H](C)NC(=O)[C@H](Cc1cnc[nH]1)NC(=O)[C@H](Cc1cnc[nH]1)NC(=O)[C@H](CC(C)C)NC(=O)[C@@H](NC(=O)[C@@H]1CCCN1C(=O)[C@H](CC(C)C)NC(=O)[C@H](CCC(N)=O)NC(=O)[C@H](CC(C)C)NC(=O)[C@@H](N)CO)[C@@H](C)CC)C(=O)NCC(=O)NCC(=O)N[C@H](C(=O)O)C(C)C (some centres not stated) (H-SLQLPILHHAALP[ξS]IGGV-OH)
[1]
  EC50: Not Active
[14]
  IC50: Not Active
  Ki: Not Active

## CC(C)C[C@H](NC(=O)[C@H](CCCNC(=N)N)NC(=O)[C@H](CC(=O)O)NC(=O)[C@@H]1CCCN1C(=O)[C@@H]1CCCN1C(=O)[C@H](CCC(=O)O)NC(=O)[C@@H]1CCCN1)C(=O)N[C@@H](CO)C(=O)N[C@@H](CS)C(=O)N[C@@H](CC(=O)O)C(=O)NCC(=O)N[C@@H](CO)C(=O)N[C@@H](CCCNC(=N)N)C(=O)N[C@H](C(=O)N[C@@H](Cc1cnc[nH]1)C(=O)O)C(C)C
[1]
  EC50: Not Active
